Assay: Polymorphic stability of nateglinide Form B after processing: absence of Form H by X-ray powder diffraction
Format: physicochemical
Details: Cu Kα-1, after de-lumping and air jet milling, Form H detectable at about 2 percent by weight or more
Description: Stability of the nateglinide Form B after processing is determined by an absence of the polymorphic Form H of the compound. This is determined by generating X-ray powder diffraction patterns of samples and checking for the characteristic peaks that correspond to Form H. For the present application, the X-ray diffraction patterns of the figures were obtained with Cu Kα-1 radiation. Nateglinide Form H can be detected at concentrations at least about 2 percent by weight, and quantified at concentrations at least about 5 percent by weight.

presence of nateglinide Form H after particle size reduction (stability of Form B): not detected
SMILES: CC(C)[C@H]1CC[C@H](C(=O)NC(Cc2ccccc2)C(=O)O)CC1 (single isomer, unassigned; (-)) [nateglinide Form B, (−)-N-[(trans-4-isopropylcyclohexane)-carbonyl]-D-phenylalanine]
